Legend:
[1] = tested on: spiderwort Commelina communis; assay: Plant activating effect, foliar application, spiderwort; assay type: in vivo; settings: 21 days, 12 plants
Protocol: A total of 12 pots, in which 600 g of volcanic ash soil was packed in a porcelain pot of 12 cm in inner diameter, and 1 plant of a spiderwort Commelina communis grown to a height of 15 cm was planted in 1 pot, were prepared and placed under a constant temperature environment of 20° C., and foliar application treatment was carried out once a day using the following application liquids. Conditions of the leaves 21 days thereafter were observed.

[2] = Test on the generation of silver chloride precipitation with silver nitrate; assay type: physicochemical; settings: 0.5 g with 0.5 g of silver nitrate in 10 ml of ion exchange water, 5 minutes
Protocol: In 10 ml of ion exchange water, 0.5 g of 5-aminolevulinic acid phosphate and 0.5 g of silver nitrate were dissolved, the mixture was allowed to stand still for 5 minutes, and conditions of the liquid was observed. […] In this connection, 0.5 g of 5-aminolevulinic acid hydrochloride and 0.5 g of silver nitrate were dissolved in 10 ml of ion exchange water and allowed to stand still for 5 minutes, and conditions of the liquid was observed.
In 10 ml of ion exchange water, 0.5 g of 5-aminolevulinic acid nitrate and 0.5 g of silver nitrate were dissolved, the mixture was allowed to stand still for 5 minutes, and conditions of the liquid was observed.
In this connection, 0.5 g of 5-aminolevulinic acid hydrochloride and 0.5 g of silver nitrate were dissolved in 10 ml of ion exchange water and allowed to stand still for 5 minutes, and conditions of the liquid was observed.
In 10 ml of ion exchange water, 0.5 g of 5-aminolevulinic acid p-toluenesulfonate and 0.5 g of silver nitrate were dissolved, the mixture was allowed to stand still for 5 minutes, and conditions of the liquid was observed.

[3] = Stimulation test (sense of taste, solid put on the tongue); assay type: in vivo; set-up: key to sense of taste stimulation: 0: No stimulation is felt.; 1: There is a stimulation but weak.; 2: There is a strong stimulation; settings: for sense of taste stimulation: 5 mg of solid on the tongue, one score per subject, five subjects
Protocol: Each of five subjects has evaluated the sense of taste of the 5-aminolevulinic acid phosphate obtained in Example 1, in accordance with the following criteria by directly putting 5 mg of its solid on the tongue.
• 0: No stimulation is felt. • 1: There is a stimulation but weak. • 2: There is a strong stimulation.
The sense of taste was evaluated in the same manner as in Example 6, except that 5 mg of solid of 5-aminolevulinic acid hydrochloride was used.

Rice seeds (Akinishiki) = assay: Plant growth regulation effect; assay type: in vivo; settings: ratio to untreated plot
Protocol: Rice seeds (Akinishiki) were soaked in Benlate (manufactured by Sumika Takeda Engei) (200 times) aqueous solution for a whole day and night and then incubated at 30° C. under a dark condition to effect hastening of germination. Seeds of even pigeon breast stage were selected, 10 seeds were inserted using a pair of tweezers into a groove on one expanded polyethylene sheet, which was made using a cutter knife, and this sheet was floated on a tall Petri dish filled with 150 ml of 5-aminolevulinic acid phosphate of respective concentrations shown in Table 11 and incubated at 25° C. for 24 hours under 5,000 lux continuous light irradiation. The number of repetitions was set to 3 repetitions for each concentration. Examination was carried out three days thereafter, and lengths of the first leaf sheath and seminal root in each plot were measured to calculate their ratios to those in the untreated plot and to calculate average values thereof.

apple variety “Fuji” = assay: Coloring test of apple; assay type: in vivo
Protocol: The 5-aminolevulinic acid phosphate obtained in Example 1 was dissolved in ion exchange water to the predetermined concentration shown in the following table. A spreader (“Approach BI” manufactured by Maruwa Biochemical) was added to the liquid to a concentration of 0.1% by weight. The pH was adjusted using phosphoric acid.
An aqueous 5-aminolevulinic acid hydrochloride solution was prepared in the same manner, except that the above-described 5-aminolevulinic acid phosphate was changed to 5-aminolevulinic acid hydrochloride and the phosphoric acid for pH adjustment was changed to hydrochloric acid.
The thus prepared liquid was sprayed at a ratio of 2 liters per branch on three main branches where young fruits of an apple variety “Fuji” bored but not yet colored into red (September 15). About 2 months thereafter (November 6), the apples were harvested and their coloring degree was examined. A color meter CR-200 manufactured by MINOLTA CAMERA was used for the measurement of color.
The 5-aminolevulinic acid nitrate obtained in Example 16 was dissolved in ion exchange water to the predetermined concentration shown in Table 16. A spreader (“Approach BI” manufactured by Maruwa Biochemical) was added to the liquid to a concentration of 0.1% by weight. The pH was adjusted using nitric acid.
A solution was prepared in the same manner, except that the above-described 5-aminolevulinic acid nitrate was changed to 5-aminolevulinic acid hydrochloride and the nitric acid was changed to hydrochloric acid.
The 5-aminolevulinic acid p-toluenesulfonate obtained in Example 23 was dissolved in ion exchange water to the predetermined concentration shown in Table 24. A spreader (“Approach B1” manufactured by Maruwa Biochemical) was added to the liquid to a concentration of 0.1% by weight. The pH was adjusted using p-toluenesulfonic acid.
A solution was prepared in the same manner, except that the above-described 5-aminolevulinic acid p-toluenesulfonate was changed to 5-aminolevulinic acid hydrochloride and the p-toluenesulfonic acid was changed to hydrochloric acid.

With `Cl.NCC(=O)CCC(=O)O` [5-aminolevulinic acid hydrochloride, reference compound] the “plants judged 0: Abnormality was not found on the leaf surface” value ([1]; 1 ppm in tap water) was 2 plants, the “plants judged 1: A region discolored to yellow was found on the leaf surface” value (“plants judged 1: A region discolored” for short) ([1]; 1 ppm in tap water) was 7 plants and the “plants judged 2: A necrotic region was found on the leaf surface” value ([1]; 1 ppm in tap water) was 3 plants. The “plants judged 0: Abnormality was not found on the leaf surface” value ([1]; 10 ppm in tap water) was 5 plants, the “plants judged 1: A region discolored” value ([1]; 10 ppm in tap water) was 5 plants and the “plants judged 2: A necrotic region was found on the leaf surface” value ([1]; 10 ppm in tap water) was 2 plants. The “plants judged 0: Abnormality was not found on the leaf surface” value ([1]; 100 ppm in tap water) was 5 plants, the “plants judged 1: A region discolored” value ([1]; 100 ppm in tap water) was 4 plants and the “plants judged 2: A necrotic region was found on the leaf surface” value ([1]; 100 ppm in tap water) was 3 plants. For the same molecule, the generation of precipitate [2] was “Generation of the precipitate was found”, the “sense of taste stimulation” value [3] was 2 and the “First leaf sheath length (%)” value (Rice seeds (Akinishiki); 1 ppm) was 107%. The “Seminal root length (%)” value (Rice seeds (Akinishiki); 1 ppm) was 103%, the “First leaf sheath length (%)” value (Rice seeds (Akinishiki); 10 ppm) was 101% and the “Seminal root length (%)” value (Rice seeds (Akinishiki); 10 ppm) was 96%. For the same molecule, the “First leaf sheath length (%)” value (Rice seeds (Akinishiki); 100 ppm) was 98%, the “Seminal root length (%)” value (Rice seeds (Akinishiki); 100 ppm) was 109% and the “Coloring, L” value (apple variety “Fuji”; 100 ppm (pH 5.0)) was 42.28. The “Coloring, a” value (apple variety “Fuji”; 100 ppm (pH 5.0)) was 25.96, the “Coloring, b” value (apple variety “Fuji”; 100 ppm (pH 5.0)) was 14.72 and the “Coloring, L” value (apple variety “Fuji”; 200 ppm (pH 4.8)) was 42.34. The “Coloring, a” value (apple variety “Fuji”; 200 ppm (pH 4.8)) was 30.92 and the “Coloring, b” value (apple variety “Fuji”; 200 ppm (pH 4.8)) was 14.41.
For `NCC(=O)CCC(=O)O.O=P(O)(O)O` [5-aminolevulinic acid phosphate, 5-aminolevulinic Acid Phosphate], the “plants judged 0: Abnormality was not found on the leaf surface” value ([1]; 1 ppm in tap water) was 6 plants, the “plants judged 1: A region discolored” value ([1]; 1 ppm in tap water) was 5 plants and the “plants judged 2: A necrotic region was found on the leaf surface” value ([1]; 1 ppm in tap water) was 1 plant^ plants. The “plants judged 0: Abnormality was not found on the leaf surface” value ([1]; 10 ppm in tap water) was 7 plants, the “plants judged 1: A region discolored” value ([1]; 10 ppm in tap water) was 3 plants and the “plants judged 2: A necrotic region was found on the leaf surface” value ([1]; 10 ppm in tap water) was 2 plants. For the same molecule, the “plants judged 0: Abnormality was not found on the leaf surface” value ([1]; 100 ppm in tap water) was 6 plants, the “plants judged 1: A region discolored” value ([1]; 100 ppm in tap water) was 4 plants and the “plants judged 2: A necrotic region was found on the leaf surface” value ([1]; 100 ppm in tap water) was 2 plants. For the same molecule, the generation of precipitate [2] was “Generation of the precipitate was not found”, the “stimulation on the tongue in comparison with hydrochloride” value ([3]; 5 mg of solid) was “strong stimulation was not found” and the “sense of taste stimulation” value [3] was 1. The “First leaf sheath length (%)” value (Rice seeds (Akinishiki); 1 ppm) was 102%, the “Seminal root length (%)” value (Rice seeds (Akinishiki); 1 ppm) was 106% and the “First leaf sheath length (%)” value (Rice seeds (Akinishiki); 10 ppm) was 106%. For the same molecule, the “Seminal root length (%)” value (Rice seeds (Akinishiki); 10 ppm) was 108%, the “First leaf sheath length (%)” value (Rice seeds (Akinishiki); 100 ppm) was 101% and the “Seminal root length (%)” value (Rice seeds (Akinishiki); 100 ppm) was 101%. For the same molecule, the “Coloring, L” value (apple variety “Fuji”; 100 ppm (pH 5.0)) was 42.37, the “Coloring, a” value (apple variety “Fuji”; 100 ppm (pH 5.0)) was 27.45 and the “Coloring, b” value (apple variety “Fuji”; 100 ppm (pH 5.0)) was 14.54. The “Coloring, L” value (apple variety “Fuji”; 200 ppm (pH 5.4)) was 42.43, the “Coloring, a” value (apple variety “Fuji”; 200 ppm (pH 5.4)) was 31.06 and the “Coloring, b” value (apple variety “Fuji”; 200 ppm (pH 5.4)) was 14.63. The “Coloring of red compared with 5-aminolevulinic acid hydrochloride” value (apple variety “Fuji”; in vivo) was “Coloring of red was denser”.

Reference: US8471061B2 (priority 2004, dated 2013)
